In experiment [1] the test system is MV-4-11. The experiment is described as follows: Alamar Blue cell proliferation assay, MV-4-11. To be noted: Homo sapiens, MV4-11, MV-4-11, Table 1, read-out: AB: MV-4-11 IC50. The format is cell-based. The method, then:
(§1) A representative cell-proliferation assay protocol using Alamar Blue dye (stored at 4° C., use 20 ul per well) is described hereafter.
(§2) a. Split and trypsinize cells.
(§3) b. Count cells using hemocytometer.
(§4) c. Plate 4,000-5,000 cells per well in 100 μl of medium and seed into a 96-well plate according to the following plate layout. Add cell culture medium only to wells B10 to B12. Wells B1 to B9 have cells but no compound added.
(§5) d. Add 100 μl of 2× drug dilution to each well in a concentration shown in the plate layout above. At the same time, add 100 μl of media into the control wells (wells B10 to B12). Total volume is 200 μl/well.
(§6) e. Incubate four (4) days at 37° C., 5% CO2 in a humidified incubator.
(§7) f. Add 20 μl Alamar Blue reagent to each well.
(§8) g. Incubate for four (4) hours at 37° C., 5% CO2 in a humidified incubator.
(§9) h. Record fluorescence at an excitation wavelength of 544 nm and emission wavelength of 590 nm using a microplate reader.
(§10) In the assays, cells are cultured with a test compound for approximately four days, the dye is then added to the cells and fluorescence of […] dye is detected after approximately four hours. Different types of cells can be utilized in the assays (e.g., HCT-116 human colorectal carcinoma cells, PC-3 human prostatic cancer cells and MiaPaca human pancreatic carcinoma cells).
In general terms: The colour change of resazurin is a common sign of viable cells or microbes.

Experiment [2] has as its target T1, recombinant human CK2 (Homo sapiens, UniProt P68400).
T1 construct: purchased Upstate
The experiment is described as follows: CK2 assay (cell-free, 33P-ATP filter plate). The format is biochemical. As to the method:
Modulatory activity of compounds described herein was assessed in vitro in cell-free CK2 assays by the following method.
Test compounds in aqueous solution were added at a volume of 10 microliters, to a reaction mixture comprising 10 microliters Assay Dilution Buffer (ADB; 20 mM MOPS, pH 7.2, 25 mM beta-glycerolphosphate, 5 mM EGTA, 1 mM sodium orthovanadate and 1 mM dithiothreitol), 10 microliters of substrate peptide (RRRDDDSDDD, dissolved in ADB at a concentration of 1 mM), 10 microliters of recombinant human CK2 (25 ng dissolved in ADB; Upstate). Reactions were initiated by the addition of 10 microliters of ATP Solution (90% 75 mM MgCl2, 75 micromolar ATP dissolved in ADB; 10% [γ-^33P]ATP (stock 1 mCi/100 μl; 3000 Ci/mmol (Perkin Elmer) and maintained for 10 minutes at 30 degrees C. The reactions were quenched with 100 microliters of 0.75% phosphoric acid, then transferred to and filtered through a phosphocellulose filter plate (Millipore). After washing each well 5 times with 0.75% phosphoric acid, the plate was dried under vacuum for 5 min and, following the addition of 15 ul of scintillation fluid to each well, the residual radioactivity was measured using a Wallac luminescence counter.

Experiment [3] concerns the target recombinant PIM-1 (Homo sapiens, UniProt P11309). The experiment is described as follows: PIM-1 assay (33P-ATP filter plate). The format is biochemical. To be noted: read-out: PIM1: IC50. The method, then: The following procedure was used to assay the PIM-1 kinase activity of compounds of the invention. Other methods for assaying PIM-1 and other PIM kinases, as well as methods to assay for activity against the various kinases are known in the art.
In a final reaction volume of 50 ul, recombinant PIM-1 (1 ng) was incubated with 12 mM MOPS pH 7.0, 0.4 mM EDTA, glycerol 1%, brij 35 0.002%, 2-mercaptoethanol 0.02%, BSA 0.2 mg/ml, 100 uM KKRNRTLTK, 10 mM MgAcetate, 15 uM ATP, [γ-^33P-ATP] (specific activity approx. 500 cpm/pmol), DMSO 4% and test inhibitor compound at the required concentration. The reaction was initiated by the addition of the Magnesium ATP mixture. After 40 min incubation at 23° C., the reactions were quenched by the addition of 100 ul 0.75% Phosphoric acid, and the labeled peptide collected by filtration through a phosphocellulose filter plate. The plate was washed 4 times with 0.075% phosphoric acid (100 ul per well) and then, after the addition of scintillation fluid (20 ul per well), the counts were measured by a scintillation counter.

Experiment [4] deals with MDAMB231. The experiment is described as follows: Alamar Blue cell proliferation assay, MDAMB231. The format is cell-based. To be noted: Homo sapiens, MDA-MB-231, MDAMB231, Table 1, read-out: AB: MDAMB231 IC50. The method, then:
as §1, §2, §3, §4, §5, §6, §7, §8, §9, §10

Experiment [5] deals with PC-3 human prostatic cancer cells. In words: Alamar Blue cell proliferation assay, PC3. The format is cell-based. As to the method:
as §1, §2, §3, §4, §5, §6, §7, §8, §9, §10

In experiment [6] the test system is K-562. In words: Alamar Blue cell proliferation assay, K-562. The format is cell-based. To be noted: Homo sapiens. The method, then: as §1, §2, §3, §4, §5, §6, §7, §8, §9, §10
Experiment [7] has as its system MiaPaca human pancreatic carcinoma cells. In words: Alamar Blue cell proliferation assay, MiaPaCa. The format is cell-based. To be noted: MIA PaCa-2, Table 1, read-out: AB: MiaPaCa IC50. The method, then:
as §1, §2, §3, §4, §5, §6, §7, §8, §9, §10

Where [8] appears, read: PC-3, PC3, Table 1, read-out: AB: PC3.
Setting [9] is: K562, K-562, Table 1, read-out: AB: K-562 IC50.
Setting [10] is: PC3, Table 4, read-out: AB: PC3 IC50.
The mark [11] stands for this setting: K562, K-562, Table 4, read-out: AB: K-562 IC50.

Like-named read-outs stand apart in the source and are kept apart here. Where only a bound is given, the exact number is not on record here.

T1 sequence (P68400 whole entry): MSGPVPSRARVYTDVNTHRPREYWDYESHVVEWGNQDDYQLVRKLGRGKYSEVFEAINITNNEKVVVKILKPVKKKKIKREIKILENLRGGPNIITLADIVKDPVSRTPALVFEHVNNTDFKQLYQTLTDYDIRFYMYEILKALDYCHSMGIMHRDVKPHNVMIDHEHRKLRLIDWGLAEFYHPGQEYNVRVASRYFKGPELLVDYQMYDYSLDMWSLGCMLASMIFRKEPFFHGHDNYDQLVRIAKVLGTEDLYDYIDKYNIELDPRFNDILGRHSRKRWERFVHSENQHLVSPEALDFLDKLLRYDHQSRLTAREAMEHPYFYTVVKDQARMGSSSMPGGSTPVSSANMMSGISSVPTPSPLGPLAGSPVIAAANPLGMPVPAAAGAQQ
T1 sequence (P67870 whole entry partner): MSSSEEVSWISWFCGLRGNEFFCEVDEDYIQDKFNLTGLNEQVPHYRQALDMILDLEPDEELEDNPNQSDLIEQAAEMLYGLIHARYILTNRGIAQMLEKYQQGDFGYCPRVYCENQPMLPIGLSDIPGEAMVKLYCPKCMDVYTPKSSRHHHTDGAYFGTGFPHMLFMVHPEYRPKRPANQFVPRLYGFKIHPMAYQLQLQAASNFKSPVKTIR
Chain of recombinant PIM-1 (P11309 whole entry): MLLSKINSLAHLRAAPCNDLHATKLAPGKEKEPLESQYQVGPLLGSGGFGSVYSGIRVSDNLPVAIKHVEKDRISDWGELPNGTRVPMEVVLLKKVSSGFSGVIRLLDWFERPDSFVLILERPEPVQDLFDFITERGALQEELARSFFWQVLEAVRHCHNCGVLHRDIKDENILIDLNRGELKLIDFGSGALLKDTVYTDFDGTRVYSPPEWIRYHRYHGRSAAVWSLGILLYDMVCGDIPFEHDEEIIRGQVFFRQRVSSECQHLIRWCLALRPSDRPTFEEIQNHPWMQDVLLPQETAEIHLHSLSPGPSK

`CCN(CC)CCNC(=O)c1ccc(Cl)c(-c2ccc(/C=C3\SC(=S)NC3=O)o2)c1`: the IC50 in experiment [1] is < 30 nM; in experiment [2] (Table 1), 3 nM; in experiment [3] (Table 1), < 1 nM; in experiment [4], > 10000 nM; in experiment [5] (setting [8]), > 10000 nM; in experiment [6] (setting [9]) it was 64 nM.
Take `O=C1NC(=O)/C(=C\c2ccc(-c3cccc(C(=O)O)c3)o2)N1`: the IC50 was 2060 nM in experiment [2] (Table 3) and > 5000 nM in experiment [3] (Table 3).
`COC(=O)c1cccc(-c2ccc(CC3SC(=S)NC3=O)o2)c1` (stereo not shown): the IC50 in experiment [1] is > 10000 nM; in experiment [2] (Table 1) it was 3 nM; in experiment [7], > 10000 nM; in experiment [3] (Table 1), 6 nM; in experiment [4], > 10000 nM; in experiment [6] (setting [9]), > 10000 nM.
For `CN1CCCN(c2cncc(-c3cccc(/C=C4\SC(=O)NC4=O)c3)n2)CC1`, the IC50 in experiment [2] (Table 4) was determined as 3 nM; in experiment [3] (Table 4), 1 nM; in experiment [5] (setting [10]) it was 9490 nM; in experiment [6] (setting [11]) it was 76 nM.
For `NS(=O)(=O)c1ccc(-c2ccc(/C=C3\NC(=O)NC3=O)o2)cc1`, the values for the IC50 in experiment [2] (Table 3) and in experiment [3] (Table 3) were 458 nM and 276 nM, respectively.
Regarding `NS(=O)(=O)c1ccc(-c2ccc(/C=C3\SC(=O)NC3=O)o2)cc1`, the IC50 is 35 nM in experiment [2] (Table 2); 51 nM in experiment [3] (Table 2); > 10000 nM in experiment [5] (PC3, Table 2, read-out: AB: PC3 IC50).
`O=C1NC(=S)S/C1=C\c1ccc(-c2ccc(Cl)c(C(=O)O)c2)o1`: the IC50 in experiment [1] was > 10000 nM; in experiment [2] (Table 1), 107 nM; in experiment [7] it was > 10000 nM; in experiment [3] (Table 1) it was 226 nM; in experiment [4], > 10000 nM; in experiment [6] (setting [9]), > 10000 nM.
With `O=C1NC(=O)/C(=C\c2ccc(-c3ccc(C(=O)O)cc3)o2)N1`, the IC50 in experiment [2] (Table 3) came to 166 nM; in experiment [3] (Table 3) it was 805 nM.
As to `CN1CCCN(C(=O)c2ccccc2-c2ccc(/C=C3\SC(=S)NC3=O)o2)CC1`, the IC50 in experiment [2] (Table 1) is > 5000 nM; in experiment [3] (Table 1), 1300 nM.
For `COCCNC(=O)c1ccc(Cl)c(-c2ccc(/C=C3\SC(=S)NC3=O)o2)c1`, the IC50 in experiment [2] (Table 1) is 10 nM; in experiment [7], > 10000 nM; in experiment [3] (Table 1), 3 nM; in experiment [4], > 10000 nM; in experiment [5] (setting [8]), > 10000 nM; in experiment [6] (setting [9]), 7620 nM.
Turning to `CN1CCCN(c2cncc(-c3ccc(/C=C4\SC(=O)NC4=O)o3)n2)CC1`, the IC50 was 6 nM in experiment [2] (Table 4), 22 nM in experiment [3] (Table 4), > 10000 nM in experiment [5] (setting [10]) and 146 nM in experiment [6] (setting [11]).
In the case of `CN1CCCN(c2cncc(-c3ccc(/C=C4\NC(=O)NC4=O)o3)n2)CC1`, the results for the IC50 in experiment [2] (Table 4) and in experiment [3] (Table 4) were 229 nM and 1850 nM, respectively.
Regarding `NS(=O)(=O)c1ccc(-c2ccc(/C=C3\SC(=S)NC3=O)o2)cc1`, the IC50 in experiment [2] (Table 1) was 9 nM; in experiment [3] (Table 1), 15 nM; in experiment [5] (setting [8]), > 10000 nM.
For the compound `CN1CCCN(C(=O)c2cccc(-c3ccc(/C=C4\C(=O)NC(=O)N4C)o3)c2)CC1`, the IC50 in experiment [2] (Table 3) is 1820 nM; in experiment [3] (Table 3), > 5000 nM.
On the same counts, the results for `CN1C(=O)NC(=O)/C1=C\c1ccc(-c2cccc(C(=O)O)c2)o1` are 1460 nM and > 5000 nM.
In the case of `O=C1NC(=O)/C(=C/c2ccc(-c3cccc(C(=O)O)c3)o2)S1`, the IC50 in experiment [2] (Table 2) was 117 nM; in experiment [3] (Table 2), > 5000 nM.
`CN1C(=O)NC(=O)/C1=C\c1ccc(-c2ccc(C(=O)O)cc2)o1`: the IC50 in experiment [2] (Table 3) worked out at 216 nM; in experiment [3] (Table 3) it was 829 nM.
For the compound `CN1CCCN(C(=O)c2cccc(-c3ccc(/C=C4/NC(=O)NC4=O)o3)c2)CC1`, the IC50 in experiment [2] (Table 3) and in experiment [3] (Table 3) was > 5000 nM each time.
As to `O=C1NC(=S)S/C1=C\c1ccc(-c2ccccc2C(=O)O)o1`, the IC50 in experiment [2] (Table 1) came to 3790 nM; in experiment [3] (Table 1), 4330 nM.
As for `CN1CCCN(c2cncc(-c3ccc(/C=C4\SC(=S)NC4=O)o3)n2)CC1`, the IC50 was 18 nM in experiment [2] (Table 4), 141 nM in experiment [3] (Table 4) and > 10000 nM in experiment [5] (setting [10]).
Take `CN1CCCN(c2cncc(-c3cccc(/C=C4\SC(=S)NC4=O)c3)n2)CC1`: the IC50 is 1 nM in experiment [2] (Table 4), < 1 nM in experiment [3] (Table 4), 3460 nM in experiment [5] (setting [10]) and < 30 nM in experiment [6] (setting [11]).
